Results reported in ChEMBL document CHEMBL1201862, “PubChem BioAssay data set” (2004).
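Assay format: 96-well plates, 48-hour exposure. At the GI50, growth is halved.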 The source made the active and inactive calls. Rule as the data show it: active = GI50 up to about 1.1 µM and inactive = higher.

Columns and labels:
Experiment in all cases: NCI-60 cell line screen, 48 h
[1] = test system: 786-0
[2] = test system: DU-145
[3] = test system: HOP-92
[4] = test system: IGROV-1
[5] = test system: K562
[6] = test system: LOX IMVI
[7] = test system: M14
[8] = test system: MDA-N
[9] = test system: NCI-H23
[10] = test system: NCI-H522
[11] = test system: OVCAR-3
[12] = test system: PC-3
[13] = test system: RXF 393
[14] = test system: SK-MEL-28
[15] = test system: SK-MEL-5
[16] = test system: SK-OV-3
[17] = test system: SW-620
[18] = test system: TK-10
[19] = test system: U-251
[20] = test system: UACC-257

Measured: GI50

OC12CC3c4ccccc4NC3C3Oc4cccc5c4C31CCN(CC1CC1)C2C5 (stereo not given)
inactive: [1] 16.7 µM | [2] 17.1 µM | [3] 11.4 µM | [4] 15.5 µM | [5] 15.5 µM | [6] 15.9 µM | [7] 17.7 µM | [8] 17.9 µM | [9] 13 µM | [10] 21.7 µM | [11] 16.9 µM | [12] 16.7 µM | [13] 14.3 µM | [14] 13.8 µM | [15] 16.8 µM | [16] 18.7 µM | [17] 11.8 µM | [18] 17.3 µM | [19] 17.3 µM | [20] 17.8 µM

OC1c2ccccc2CC12Cc1ccccc1C2 (stereo not given)
inactive: [1] > 100 µM | [2] > 100 µM | [3] 64 µM | [4] > 100 µM | [5] 72.4 µM | [6] > 100 µM | [7] > 100 µM | [8] > 100 µM | [9] > 100 µM | [10] 62.5 µM | [11] 90.2 µM | [12] > 100 µM | [13] 48.3 µM | [14] > 100 µM | [15] 22.6 µM | [16] > 100 µM | [17] > 100 µM | [18] > 100 µM | [19] > 100 µM | [20] 44.9 µM

C=CCCCCOC1C=CC(OC(C)=O)C(COC(C)=O)O1 (stereo not given)
inactive: [1] > 100 µM | [2] > 100 µM | [3] > 100 µM | [4] > 100 µM | [5] > 10 µM | [6] > 100 µM | [7] > 100 µM | [8] > 100 µM | [9] > 100 µM | [10] > 100 µM | [11] > 100 µM | [12] > 100 µM | [13] > 100 µM | [14] > 100 µM | [15] > 100 µM | [16] > 100 µM | [17] > 100 µM | [18] > 100 µM | [19] > 100 µM | [20] > 100 µM

C(=N\NC1=NCCCN1)/c1ccc(-c2cn3cc(/C=N/NC4=NCCCN4)ccc3n2)cc1
inactive: [1] 18.9 µM | [2] 26.6 µM | [3] 59 µM | [4] 50.6 µM | [5] 38.4 µM | [6] > 100 µM | [7] > 81.1 µM | [8] > 100 µM | [9] > 100 µM | [10] > 100 µM | [11] > 100 µM | [12] > 40.1 µM | [13] 61.1 µM | [14] > 100 µM | [15] > 100 µM | [16] > 100 µM | [17] > 100 µM | [18] > 100 µM | [19] > 88.9 µM | [20] > 100 µM

CN(NC(=O)CCCl)C1=NCCCCN1
inactive: [1] > 100 µM | [2] > 100 µM | [3] > 100 µM | [4] > 100 µM | [5] > 100 µM | [6] > 100 µM | [7] > 100 µM | [8] > 100 µM | [9] > 100 µM | [10] > 100 µM | [11] > 100 µM | [12] > 100 µM | [13] > 100 µM | [14] > 100 µM | [15] > 100 µM | [16] > 100 µM | [17] > 100 µM | [18] > 100 µM | [19] > 100 µM | [20] > 100 µM

Oc1ncnc2c1nnn2CCCCCCCCCCCCn1nnc2c(O)ncnc21
inactive: [1] 22.9 µM | [2] > 100 µM | [3] 30 µM | [4] 22.2 µM | [5] > 100 µM | [6] 45.8 µM | [7] > 100 µM | [8] > 100 µM | [9] 5.68 µM | [10] 20.4 µM | [11] 40.5 µM | [12] > 100 µM | [13] 24.3 µM | [14] > 93.1 µM | [15] 19.8 µM | [16] 17.7 µM | [17] > 100 µM | [18] 24.4 µM | [19] 21.5 µM | [20] 20.3 µM

O=C1c2c(Cl)c(Cl)c(Cl)c(Cl)c2C(=O)N1CCN(c1c(Cl)ssc1=O)c1c(Cl)ssc1=O
inactive: [1] 18.2 µM | [2] 19 µM | [3] 20.1 µM | [4] 46.2 µM | [5] 20.7 µM | [6] 21.9 µM | [7] 21.5 µM | [8] 18.5 µM | [9] 40.9 µM | [10] 23.2 µM | [11] 18.7 µM | [12] 22.9 µM | [13] 16.4 µM | [14] 58.3 µM | [15] > 100 µM | [16] > 100 µM | [17] 22.5 µM | [18] 18.7 µM | [19] 95.9 µM | [20] 16.9 µM

O=C(NO)c1ccc(OCc2ccccc2)cc1
inactive: [1] 16.9 µM | [2] 14.3 µM | [3] 33.5 µM | [4] 14.3 µM | [5] 37.7 µM | [6] 19.1 µM | [7] 47.6 µM | [8] 25.9 µM | [9] 14.1 µM | [10] 9.62 µM | [11] 9.95 µM | [12] 23.3 µM | [13] 26.7 µM | [14] 28.1 µM | [15] 45.6 µM | [16] 37.2 µM | [17] 24.5 µM | [18] 23.7 µM | [19] 27.5 µM | [20] 29.4 µM

COc1ccc(/C=C2\CCC(C)C3=C2NC(=S)NC3c2ccc(OC)c(OC)c2)cc1OC (stereo not given)
inactive: [1] 22.3 µM | [2] 27.2 µM | [3] 36.1 µM | [4] 13.6 µM | [5] 3.99 µM | [6] 17.4 µM | [7] 19.5 µM | [8] 3.83 µM | [9] > 10 µM | [10] > 100 µM | [11] 24.4 µM | [12] 10.7 µM | [13] > 10 µM | [14] > 31.6 µM | [15] 12.5 µM | [16] 29.9 µM | [17] 26.1 µM | [18] 19.7 µM | [19] 24.6 µM | [20] > 31.6 µM
